What was measured:
[1] = system: Zymoseptoria tritici; assay: Test E: wheat leaf blotch, preventive spray on wheat seedlings; conditions: 100 = 100% disease control; for Test E rating (% disease control): 10 ppm, wheat leaf blotch, 0 = no control; for Test E disease control rating: 10 ppm test solution, 0 = no control relative to controls
[2] = system: Puccinia recondita f sp. tritici; assay: Test F: wheat leaf rust, preventive spray on wheat seedlings; conditions: 100 = 100% disease control; for Test F rating (% disease control): 10 ppm, wheat leaf rust, 0 = no control; for Test F disease control rating: 10 ppm test solution, 0 = no control relative to controls
[3] = system: Botrytis cinerea; assay: Test B: gray mold, preventive spray on tomato seedlings; conditions: 100 = 100% disease control; for Test B rating (% disease control): 10 ppm, gray mold on tomato, 0 = no control; for Test B disease control rating: 10 ppm test solution, 0 = no control relative to controls
From the text: General protocol for preparing test solutions for Tests A-G: the test compounds were first dissolved in acetone in an amount equal to 3% of the final volume and then suspended at the desired concentration (in ppm) in acetone and purified water (50/50 mix by volume) containing 250 ppm of the surfactant PEG400 (polyhydric alcohol esters). The resulting test suspensions were then used in Tests A-G. Compounds were sprayed at a concentration of 50 ppm (*) or 10 ppm to the point of run-off on the test plants, the equivalent of a rate of 200 g/ha or 40 g/ha, respectively.
The test solution was sprayed to the point of run-off on tomato seedlings. The following day the seedlings were inoculated with a spore suspension of Botrytis cinerea (the causal agent of gray mold on many crops) and incubated in a saturated atmosphere at 20° C. for 48 h, and moved to a growth chamber at 27° C. for 2 days, after which time visual disease ratings were made.
Compounds with an asterisks (*) were applied at a concentration of 50 ppm, otherwise test solutions were applied at 10 ppm.

[4] = system: Stagonospora nodorum; assay: Test D: wheat glume blotch, preventive spray on wheat seedlings; conditions: 100 = 100% disease control; for Test D rating (% disease control): 10 ppm, wheat glume blotch, 0 = no control; for Test D disease control rating: 10 ppm test solution, 0 = no control relative to controls
[5] = system: Erysiphe graminis f sp. tritici; assay: Test G: wheat powdery mildew, preventive spray on wheat seedlings; conditions: 100 = 100% disease control; for Test G rating (% disease control): 10 ppm, wheat powdery mildew, 0 = no control; for Test G disease control rating: 10 ppm test solution, 0 = no control relative to controls

Compound	Test E rating (% disease control) [1] [%]	Test F rating (% disease control) [2] [%]	Test B rating (% disease control) [3] [%]	Test D rating (% disease control) [4] [%]	Test G rating (% disease control) [5] [%]	Test E disease control rating [1] [%]	Test F disease control rating [2] [%]	Test B disease control rating [3] [%]	Test D disease control rating [4] [%]	Test G disease control rating [5] [%]
OC(Cn1cncn1)(C1=NOC(c2ccc(Br)cc2)C1)c1ccc(Cl)cc1 (single isomer, unassigned) [Compound 178]	91	100	0	99	100					
CC1(COc2ccc(Cl)cc2)CC(C(O)(Cn2cncn2)c2ccc(Cl)cc2)=NO1 (single isomer, unassigned) [Compound 218]						0	100	0	21	
CC1(COc2ccc(Cl)cc2)CC(C(O)(Cn2cncn2)C(C)(C)C)=NO1 (single isomer, unassigned) [Compound 216]						0	100	0	86	
CC1(C(O)(Cn2cncn2)C2=NOC(COc3ccc(C(F)(F)F)cc3)C2)CC1 (single isomer, unassigned) [Compound 236]						16	100		99	100
CC1(COc2ccc(Cl)cc2)CC(C(O)(Cn2cncn2)c2ccc(Cl)cc2)=NO1 (single isomer, unassigned) [Compound 219]						0	95	0	0	
CC(C)(C)C(O)(Cn1cncn1)C1=NOC(COc2ccc(Cl)cc2Cl)C1 (single isomer, unassigned) [Compound 255]						1	100		100	100
CC#CC(O)(Cn1cncn1)C1=NOC(c2ccc(Cl)cc2)C1 (stereo not drawn) [Compound 103, α-[5-(4-chlorophenyl)-4,5-dihydro-3-isoxazolyl]-α-1-propyn-1-yl-1H-1,2,4-triazole-1-ethanol]	0	94	0		92					
OC(Cn1cncn1)(C1=NOC(COc2ccc(Cl)cc2)C1)C1CCCCC1 (single isomer, unassigned) [Compound 266]						0	100		100	100
CC(C)(C)C(O)(Cn1cncn1)C1=NOC(COc2cccc(C(F)(F)F)c2)C1 (single isomer, unassigned) [Compound 254]						0	100		99	99
CCC(C)(C)C(O)(Cn1cncn1)C1=NOC(COc2ccc(F)cc2)C1 (single isomer, unassigned) [Compound 250]						0	99		64	99
OC(Cn1cncn1)(C1=NOC(COc2ncc(Cl)cn2)C1)c1ccc(Cl)cc1 (single isomer, unassigned) [Compound 167]	0	98	0	0						
CC(C)(C)C(O)(Cn1cnnn1)C1=NOC(COc2ccc(Cl)cc2)C1 (stereo not shown) [Compound 246]						0	100		98	95
CC(C)(C)C(O)(Cn1cncn1)C1=NOC(COc2ccc(Cl)c(Cl)c2)C1 (single isomer, unassigned) [Compound 257]						29	100		100	100
OC(COc1ccc(Cl)cc1)(Cn1cncn1)C1=NOC(COc2ccc(Cl)cc2)C1 (stereo not shown) [Compound 271]						2	100		42	92
OC(Cn1cncn1)(C1=NOC(COc2ccc(Cl)cc2)C1)C1CCCCC1 (single isomer, unassigned) [Compound 265]						1	100		99	100
CC(C)(C)C(O)(Cn1cncn1)C1=NOC(COc2ccc(Cl)cc2Cl)C1 (single isomer, unassigned) [Compound 256]						0	100		97	99
OC(COc1ccc(Cl)cc1)(Cn1cncn1)C1=NOC(c2ccc(Cl)cc2)C1 (stereo not shown) [Compound 272]						0	100		69	99
CC(C)(C)C(O)(Cn1cncn1)C1=NOC(COc2cccc(C(F)(F)F)c2)C1 (single isomer, unassigned) [Compound 253]						3	100		99	100
CC(C)CC(O)(Cn1cncn1)C1=NOC(COc2ccc(Cl)cc2)C1 (single isomer, unassigned) [Compound 267]						3	100		100	100
CC1(COc2ccc(Cl)cc2)CC(C(O)(Cn2cncn2)C(C)(C)C)=NO1 (single isomer, unassigned) [Compound 217]						0	100	0	92	
OC(Cn1cncn1)(C1=NOC(COc2ncc(Cl)cn2)C1)c1ccc(Cl)cc1 (single isomer, unassigned) [Compound 166]	0	41	0	0						
CC(C)(C)C(O)(Cn1cnnn1)C1=NOC(COc2ccc(Cl)cc2)C1 (stereo not shown) [Compound 247]						24	97		0	0
CC1(C(O)(Cn2cncn2)C2=NOC(COc3ccc(C(F)(F)F)cc3)C2)CC1 (single isomer, unassigned) [Compound 237]						0	100		89	98
CCC(C)(C)C(O)(Cn1cncn1)C1=NOC(COc2ccc(C(F)(F)F)cc2)C1 (single isomer, unassigned) [Compound 262]						41	99		0	98
CC(C)(C)C(O)(Cn1cncn1)C1=NOC(COc2ccc(-c3ccccc3)cc2)C1 (single isomer, unassigned) [Compound 229]						6	0		0	98
OC(Cn1cncn1)(C1=NOC(COc2ccccc2)C1)c1ccc(Cl)cc1 (single isomer, unassigned) [Compound 145]	28		0		88					
CC(C)(C)CC(O)(Cn1cncn1)C1=NOC(COc2ccc(F)cc2)C1 (single isomer, unassigned) [Compound 244]						0	100		99	99
CC(C)(C)C(O)(Cn1cncn1)C1=NOC(COc2ccc(Cl)cc2)C1 (single isomer, unassigned) [Compound 243]						0	99		0	0

— patent publication US20160242416A1, “FUNGICIDAL ISOXAZOLINE CARBINOLS” (E I DU PONT DE NEMOURS AND COMPANY, priority 2015, published 2016)
